The IC50 is the concentration at which inhibition is half-maximal. The low end stands for greater potency in that assay, the high end for weaker potency in that assay. What is called Kd is the equilibrium constant for the complex coming apart.

For ten molecules, IC50 and Kd results are on record in US20250368666A1, “INDAZOLE COMPOUNDS” (TYRA BIOSCIENCES, INC., priority 2022, published 2025).

Where only a bound is given, the exact number is not on record here.

Assay [1] relates to KATO-III cell line (FGFR2 amplification). Kind of assay: Cancer cell line cell viability assay (Cell Titer-Glo), 72 hr. It is filed as cell-based. Particulars: Homo sapiens, KATO III. The procedure, abridged: (§1)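 Luminescent ATP read-out (Cell Titer-Glo 2.0) after compound exposure, normalised to DMSO-only wells. Dosing: 9 concentrations, 4-fold steps, top 3 μM, triplicates. IC50 derived by log(inhibitor) vs. response 4-parameter fit.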
(In general: In ATP-based viability assays light output follows the ATP content of the culture.)

Assay [2] has as its system RT112/84 cell line (FGFR3-fusion). The description is as above. It is filed as cell-based. Particulars: Homo sapiens, RT112/84, RT112/84 cell line (FGFR3-fusion). Summed up:
as §1

Assay [3] has as its system KG-1 cell line (FGFR 1-fusion). Described as above. Particulars: Homo sapiens, KG-1, KG-1 cell line (FGFR1-fusion). The format is cell-based. Summed up:
as §1

The test system of assay [4] is MDA-MB-453 cell line (FGFR4-Y367C). Kind of assay: Cancer cell line cell viability assay (Cell Titer-Glo), 120 hr. It is filed as cell-based. Particulars: Homo sapiens. Summed up: as §1
Assay [5] concerns HuH7 cell line (FGF19 amplification). The description is as above. The format is cell-based. The settings on record: Homo sapiens, Huh-7. Summed up: as §1
The target of the next assay is T1, FGFR2 (Homo sapiens, UniProt P21802).
T1 construct: made in house; host or cells: E. coli (BL21-derived), T7 phage
Kind of assay: Kinase binding assay (kinase-tagged T7 phage, affinity beads, qPCR), Kd. The settings on record: read-out: FGFR2 (Kd nM). Summed up: (§2)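 Competition binding; kinase-tagged T7 phage lysate vs immobilised biotinylated ligand on streptavidin beads, 0.9% DMSO final. 11-pt 3-fold dilutions, 3 DMSO controls. qPCR of eluted kinase; Kd by Hill fit, slope −1.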
Background: In qPCR the cycle at which signal appears reflects the starting amount.

The target of a further assay is T2, FGFR4 (Homo sapiens, UniProt P22455).
T2 construct: made in house; host or cells: E. coli (BL21-derived), T7 phage
Described as above. The settings on record: read-out: FGFR4 (Kd nM). The procedure, abridged:
as §2

A further assay has as its target T3, FGFR3 (V555M) (Homo sapiens, UniProt P22607, V555M).
T3 construct: made in house; host or cells: E. coli (BL21-derived), T7 phage
Described as above. The settings on record: V555M mutant; read-out: FGFR3 (V555M) (Kd nM). Summed up: as §2

The target of the next assay is T4, FGFR3 (Homo sapiens, UniProt P22607).
T4 construct: made in house; host or cells: E. coli (BL21-derived), T7 phage
The description is as above. The settings on record: read-out: FGFR3 (Kd nM). Summed up:
as §2

Another assay addresses T5, FGFR1 (Homo sapiens, UniProt P11362).
T5 construct: made in house; host or cells: E. coli (BL21-derived), T7 phage
The assay is described as above. Particulars: read-out: FGFR1 (Kd nM). The procedure, abridged: as §2

T2 sequence (P22455 22-802): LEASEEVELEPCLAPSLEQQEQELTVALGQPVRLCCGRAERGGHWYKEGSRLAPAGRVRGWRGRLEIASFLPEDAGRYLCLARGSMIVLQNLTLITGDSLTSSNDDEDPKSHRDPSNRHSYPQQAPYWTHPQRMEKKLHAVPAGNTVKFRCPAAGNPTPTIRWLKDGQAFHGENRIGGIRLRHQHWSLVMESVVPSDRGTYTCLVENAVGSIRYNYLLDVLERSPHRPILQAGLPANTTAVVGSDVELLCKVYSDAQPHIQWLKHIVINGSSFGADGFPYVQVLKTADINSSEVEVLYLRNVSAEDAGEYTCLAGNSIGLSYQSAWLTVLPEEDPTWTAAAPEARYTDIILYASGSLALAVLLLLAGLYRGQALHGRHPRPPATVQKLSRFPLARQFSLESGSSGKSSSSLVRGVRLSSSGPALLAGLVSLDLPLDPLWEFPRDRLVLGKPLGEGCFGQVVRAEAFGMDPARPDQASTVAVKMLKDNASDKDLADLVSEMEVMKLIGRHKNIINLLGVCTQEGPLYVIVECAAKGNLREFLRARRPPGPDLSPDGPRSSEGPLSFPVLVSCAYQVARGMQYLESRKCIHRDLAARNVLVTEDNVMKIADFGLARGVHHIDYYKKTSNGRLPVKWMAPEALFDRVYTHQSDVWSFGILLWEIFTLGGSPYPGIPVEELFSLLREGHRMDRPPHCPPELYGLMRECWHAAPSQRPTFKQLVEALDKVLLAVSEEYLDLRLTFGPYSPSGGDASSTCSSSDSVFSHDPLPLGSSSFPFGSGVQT
T5 sequence (P11362 22-822): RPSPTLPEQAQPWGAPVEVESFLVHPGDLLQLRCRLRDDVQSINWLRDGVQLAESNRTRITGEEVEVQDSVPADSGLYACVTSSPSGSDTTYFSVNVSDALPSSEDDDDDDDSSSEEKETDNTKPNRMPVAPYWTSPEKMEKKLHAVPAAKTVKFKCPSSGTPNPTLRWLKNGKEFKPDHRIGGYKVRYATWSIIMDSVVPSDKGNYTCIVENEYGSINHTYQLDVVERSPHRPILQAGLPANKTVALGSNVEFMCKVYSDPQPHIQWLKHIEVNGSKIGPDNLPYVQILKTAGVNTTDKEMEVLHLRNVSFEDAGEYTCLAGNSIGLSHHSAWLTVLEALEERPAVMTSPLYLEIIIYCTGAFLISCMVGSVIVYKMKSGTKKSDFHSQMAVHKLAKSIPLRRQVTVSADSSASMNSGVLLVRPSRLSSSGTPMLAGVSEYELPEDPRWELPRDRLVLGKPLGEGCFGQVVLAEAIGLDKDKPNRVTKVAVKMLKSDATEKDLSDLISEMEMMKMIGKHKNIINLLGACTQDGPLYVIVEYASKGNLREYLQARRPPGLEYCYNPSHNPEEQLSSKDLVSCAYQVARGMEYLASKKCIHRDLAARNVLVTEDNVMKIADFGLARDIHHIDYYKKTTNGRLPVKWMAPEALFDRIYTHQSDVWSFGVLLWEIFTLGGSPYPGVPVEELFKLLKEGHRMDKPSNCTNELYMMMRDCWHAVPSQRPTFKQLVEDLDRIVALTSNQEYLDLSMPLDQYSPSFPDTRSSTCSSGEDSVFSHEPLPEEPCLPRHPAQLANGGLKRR
T4 sequence (P22607 23-806): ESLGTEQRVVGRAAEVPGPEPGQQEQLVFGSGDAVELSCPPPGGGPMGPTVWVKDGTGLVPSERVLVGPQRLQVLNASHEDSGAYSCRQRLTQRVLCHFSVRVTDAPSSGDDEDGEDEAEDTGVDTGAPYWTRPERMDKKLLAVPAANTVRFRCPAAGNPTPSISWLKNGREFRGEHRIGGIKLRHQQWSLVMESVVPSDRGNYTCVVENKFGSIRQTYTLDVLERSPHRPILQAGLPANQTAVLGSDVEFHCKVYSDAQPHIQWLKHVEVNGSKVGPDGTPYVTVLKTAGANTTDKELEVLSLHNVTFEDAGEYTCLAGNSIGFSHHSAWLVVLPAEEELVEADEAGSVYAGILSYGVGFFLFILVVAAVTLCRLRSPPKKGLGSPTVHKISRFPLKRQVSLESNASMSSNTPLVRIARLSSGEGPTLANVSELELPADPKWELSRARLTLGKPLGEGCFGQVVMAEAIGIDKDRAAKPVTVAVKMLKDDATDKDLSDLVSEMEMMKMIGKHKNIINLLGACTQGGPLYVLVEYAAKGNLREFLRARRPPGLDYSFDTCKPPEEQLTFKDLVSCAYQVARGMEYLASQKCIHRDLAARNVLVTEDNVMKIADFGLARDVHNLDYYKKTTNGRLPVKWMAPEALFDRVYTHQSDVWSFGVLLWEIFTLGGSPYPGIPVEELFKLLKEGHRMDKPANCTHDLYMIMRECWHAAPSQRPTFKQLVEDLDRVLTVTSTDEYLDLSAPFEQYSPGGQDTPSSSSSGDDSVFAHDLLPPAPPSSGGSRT
T3 sequence (P22607 23-806 V555M): as the sequence (P22607 23-806) above, with V533M counted along it
T1 sequence (P21802 22-821): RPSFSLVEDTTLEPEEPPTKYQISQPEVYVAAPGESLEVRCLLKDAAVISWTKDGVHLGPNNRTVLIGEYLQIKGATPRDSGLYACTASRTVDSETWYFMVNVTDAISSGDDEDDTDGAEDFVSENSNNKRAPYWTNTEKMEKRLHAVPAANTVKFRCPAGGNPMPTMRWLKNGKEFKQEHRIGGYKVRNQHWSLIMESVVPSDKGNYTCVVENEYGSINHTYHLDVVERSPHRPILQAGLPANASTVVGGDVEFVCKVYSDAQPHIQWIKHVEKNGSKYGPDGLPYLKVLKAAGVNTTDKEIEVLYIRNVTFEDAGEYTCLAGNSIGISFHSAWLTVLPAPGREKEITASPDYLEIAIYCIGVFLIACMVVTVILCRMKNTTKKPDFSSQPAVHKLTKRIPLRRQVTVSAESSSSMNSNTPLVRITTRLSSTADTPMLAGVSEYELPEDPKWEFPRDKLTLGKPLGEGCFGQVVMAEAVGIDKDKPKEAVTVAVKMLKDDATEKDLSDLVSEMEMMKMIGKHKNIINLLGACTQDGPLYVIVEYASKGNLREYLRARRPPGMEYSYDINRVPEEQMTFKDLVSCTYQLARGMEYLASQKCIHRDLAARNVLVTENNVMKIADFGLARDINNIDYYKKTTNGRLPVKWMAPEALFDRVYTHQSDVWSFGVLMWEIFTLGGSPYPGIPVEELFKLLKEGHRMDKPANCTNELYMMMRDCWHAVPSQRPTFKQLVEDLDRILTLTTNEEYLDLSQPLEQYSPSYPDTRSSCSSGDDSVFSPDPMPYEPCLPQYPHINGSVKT

`C[C@@H](Oc1ccc2[nH]nc(-c3cnc(N4CC(C)(CP(C)(C)=O)C4)c(C#N)c3)c2c1)c1c(Cl)cncc1Cl` [Example 6, (R)-5-(5-(1-(3,5-dichloropyridin-4-yl)ethoxy)-1H-indazol-3-yl)-2-(3-((dimethylphosphoryl)methyl)-3-methylazetidin-1-yl)nicotinonitrile]: the IC50 in assay [1] was 50 to 200 nM; in assay [2], 50 to 200 nM; in assay [3] it was over 1000 nM; in assay [4], 0.1 to 50 nM; in assay [5], 0.1 to 50 nM. For the same molecule, the Kd on FGFR2 was in the range of 1 to 50 nM; at FGFR4 it was 1 to 50 nM; on FGFR3 (V555M), 1 to 50 nM; on FGFR3, 1 to 50 nM; at FGFR1, 50 to 300 nM.

With `CNC1(C)CN(c2ncc(-c3n[nH]c4cc(OC)c(O[C@H](C)c5c(Cl)cncc5Cl)cc34)cc2C#N)C1` [Example 9, 5-[5-[(1R)-1-(3,5-dichloro-4-pyridyl)ethoxy]-6-methoxy-1H-indazol-3-yl]-2-[3-methyl-3-(methylamino)azetidin-1-yl]pyridine-3-carbonitrile], the IC50 lay within 50 to 200 nM in assay [1]; 0.1 to 50 nM in [2]; 0.1 to 50 nM in assay [3]; 0.1 to 50 nM in assay [4]; 0.1 to 50 nM in assay [5]. The Kd on FGFR2, on FGFR4, at FGFR3 (V555M), at FGFR3 and on FGFR1 was 1 to 50 nM each time.

On to `C=CCNC1(C)CN(c2ncc(-c3n[nH]c4ccc(O[C@H](C)c5c(Cl)cncc5Cl)cc34)cc2F)C1` [Example 148, (R)-N-ally1-1-(5-(5-(1-(3,5-dichloropyridin-4-yl)ethoxy)-1H-indazol-3-yl)-3-fluoropyridin-2-yl)-3-methylazetidin-3-amine], for which the IC50 in assay [1] was 50 to 200 nM; in assay [2], 0.1 to 50 nM; in assay [3], 50 to 200 nM; in assay [4], 50 to 200 nM; in assay [5], 0.1 to 50 nM. Moreover, the Kd on FGFR2, on FGFR4, on FGFR3 (V555M), at FGFR3 and on FGFR1 was 1 to 50 nM in each case.

As to `C[C@@H](Oc1ccc2[nH]nc(-c3ccc(N4C[C@@H](CS(C)(=O)=O)[C@@H]4C)nc3)c2c1)c1c(Cl)cncc1Cl` [Example 203, 5-((R)-1-(3,5-dichloropyridin-4-yl)ethoxy)-3-(6-((2S,3R)-2-methyl-3-((methyl-sulfonyl)meth-yl)azetidin-1-yl)pyridin-3-yl)-1H-indazole], the IC50 in [1] is 0.1 to 50 nM; in assay [2] it was 0.1 to 50 nM; in [3] it was 50 to 200 nM; in assay [4], 50 to 200 nM; in assay [5], 0.1 to 50 nM. In addition, the Kd at FGFR2, on FGFR4, at FGFR3 (V555M), on FGFR3 and at FGFR1 was 1 to 50 nM each time.

`CCCNC1(C)CN(c2ncc(-c3n[nH]c4ccc(O[C@H](C)c5c(Cl)cncc5Cl)cc34)cc2F)C1` [Example 142, 1-[5-[5-[(1R)-1-(3,5-dichloro-4-pyridyl)ethoxy]-1H-indazol-3-yl]-3-fluoro-2-pyridyl]-3-methyl-N-propyl-azetidin-3-amine]: the IC50 in [1] fell in the range of 50 to 200 nM; in assay [2] it was 0.1 to 50 nM; in [3] it was 50 to 200 nM; in [4], 50 to 200 nM; in assay [5] it was 0.1 to 50 nM. The Kd on FGFR2, on FGFR4, on FGFR3 (V555M), on FGFR3 and at FGFR1 was 1 to 50 nM each time.

For `C[C@@H](Oc1ccc2[nH]nc(-c3cnc(N4CC(C)(N5CCP(C)(=O)CC5)C4)c(F)c3)c2c1)c1c(Cl)cncc1Cl` [Example 198, (R)-1-(1-(5-(5-(1-(3,5-dichloropyridin-4-yl)ethoxy)-1H-indazol-3-yl)-3-fluoropyridin-2-yl)-3-methylazetidin-3-yl)-4-methyl-1,4-azaphosphinane 4-oxide], the IC50 in [1] lay in the range of 0.1 to 50 nM; in assay [2], 0.1 to 50 nM; in [3], 200 to 1000 nM; in assay [4], 0.1 to 50 nM; in [5] it was 0.1 to 50 nM. Also, the Kd on FGFR2, on FGFR4, on FGFR3 (V555M), at FGFR3 and on FGFR1 was 1 to 50 nM throughout.

For the molecule `COc1cc2[nH]nc(-c3cnc(N4CC(C)(NCC(C)(C)O)C4)c(C#N)c3)c2cc1O[C@H](C)c1c(Cl)cncc1Cl` [Example 55, (R)-5-(5-(1-(3,5-dichloropyridin-4-yl)ethoxy)-6-methoxy-1H-indazol-3-yl)-2-(3-((2-hydroxy-2-methylpropyl)amino)-3-methylazetidin-1-yl)nicotinonitrile], the IC50 in [1] lay in the range of 50 to 200 nM; in assay [2], 0.1 to 50 nM; in assay [3], 50 to 200 nM; in assay [4], 0.1 to 50 nM; in [5] it was 0.1 to 50 nM. The Kd at FGFR2, on FGFR4, on FGFR3 (V555M), on FGFR3 and at FGFR1 was 1 to 50 nM each time.

Consider `C[C@@H](Oc1ccc2[nH]nc(-c3cnc(N4CC(C)(N(C)C)C4)c(F)c3)c2c1)c1c(Cl)cncc1Cl` [Example 81, (R)-1-(5-(5-(1-(3,5-dichloropyridin-4-yl)ethoxy)-1H-indazol-3-yl)-3-fluoropyridin-2-yl)-N,N,3-trimethylazetidin-3-amine], for which the IC50 lay in the range of 50 to 200 nM in [1]; 0.1 to 50 nM in assay [2]; 50 to 200 nM in assay [3]; 0.1 to 50 nM in assay [4]; 0.1 to 50 nM in assay [5]. Also, the equilibrium dissociation constant (Kd) at FGFR2, on FGFR4, on FGFR3 (V555M), at FGFR3 and at FGFR1 was 1 to 50 nM in each case.

On to `COc1cc2[nH]nc(-c3cnc(N4CC(C)(NC(C)C)C4)c(C#N)c3)c2cc1O[C@H](C)c1c(Cl)cncc1Cl` [Example 8, (R)-5-(5-(1-(3,5-Dichloropyridin-4-yl)ethoxy)-6-methoxy-1H-indazol-3-yl)-2-(3-(isopropylamino)-3-methylazetidin-1-yl)nicotinonitrile], for which the IC50 in [1] is 50 to 200 nM; in assay [2], 0.1 to 50 nM; in assay [3] it was 50 to 200 nM; in assay [4] it was 0.1 to 50 nM; in [5], 0.1 to 50 nM. Also, the dissociation constant Kd at FGFR2, on FGFR4, at FGFR3 (V555M), at FGFR3 and on FGFR1 was 1 to 50 nM in each case.

`C[C@@H](Oc1ccc2[nH]nc(-c3cnc(N4CC(C)(N5CCOCC5)C4)c(F)c3)c2c1)c1c(Cl)cncc1Cl` [Example 80, (R)-4-(1-(5-(5-(1-(3,5-Dichloropyridin-4-yl)ethoxy)-1H-indazol-3-yl)-3-fluoropyridin-2-yl)-3-methylazetidin-3-yl)morpholine]: the IC50 in [1] is 0.1 to 50 nM; in assay [2] it was 0.1 to 50 nM; in [3], 50 to 200 nM; in [4] it was 0.1 to 50 nM; in assay [5], 0.1 to 50 nM. In addition, the Kd on FGFR2, at FGFR4, on FGFR3 (V555M), at FGFR3 and at FGFR1 was 1 to 50 nM in each case.
